Biological target: human PAD4 (hPAD4) (Homo sapiens, UniProt Q9UM07)
Experiment: RFMS human PAD4 functional assay (rapid-fire mass spectrum)
Type: biochemical
Settings: 5 nM hPAD4 enzyme, 250 μM BAEE, 50 μM Calcium; 30 min preincubation, 90 min reaction at 37° C.
In short: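 PAD4 (10 nM) preincubated 30 min with compound (top final 50 μM), then BAEE substrate added in pH 7.5 HEPES buffer with DTT, 50 μM calcium, TPEN; 90 min at 37° C. After TCA quench, citrulline derivatized with phenyl glyoxal (4 mM final, 30 min, 37° C) and quantified by RapidFire MS against internal standard.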

Chain of human PAD4 (hPAD4) (Q9UM07 whole entry): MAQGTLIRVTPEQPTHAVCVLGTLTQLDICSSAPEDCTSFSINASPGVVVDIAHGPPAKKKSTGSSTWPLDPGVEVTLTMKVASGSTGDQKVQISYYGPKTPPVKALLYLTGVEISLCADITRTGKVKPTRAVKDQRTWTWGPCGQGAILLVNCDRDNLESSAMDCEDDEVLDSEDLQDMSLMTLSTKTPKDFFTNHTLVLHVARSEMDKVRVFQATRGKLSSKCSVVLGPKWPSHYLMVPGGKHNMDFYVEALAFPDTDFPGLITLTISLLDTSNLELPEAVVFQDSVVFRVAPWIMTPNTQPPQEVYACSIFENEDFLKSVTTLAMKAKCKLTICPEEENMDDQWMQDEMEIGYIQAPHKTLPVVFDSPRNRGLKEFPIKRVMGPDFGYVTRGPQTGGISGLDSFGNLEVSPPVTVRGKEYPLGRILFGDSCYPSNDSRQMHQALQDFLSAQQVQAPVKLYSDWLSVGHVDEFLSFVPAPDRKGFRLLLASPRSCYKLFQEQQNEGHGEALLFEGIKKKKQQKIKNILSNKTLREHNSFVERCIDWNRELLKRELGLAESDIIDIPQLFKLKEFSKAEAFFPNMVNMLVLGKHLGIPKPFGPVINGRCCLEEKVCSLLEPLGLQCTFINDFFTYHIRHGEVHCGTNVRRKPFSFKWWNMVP

Structure (SMILES)	IC50
Cn1cc(Cn2c(-c3cc4cccnc4n3CC3CC3)nc3cc(C(=O)N4CC5CCC4[C@@H]5N)cc(F)c32)cn1 (stereo partly drawn) [Example 491, (7R)-2-{2-[1-(cyclopropylmethyl)-1H-pyrrolo[2,3-b]pyridin-2-yl]-7-fluoro-1-[(1-methyl-1H-pyrazol-4-yl)methyl]-1H-1,3-benzodiazole-5-carbonyl}-2-azabicyclo[2.2.1]heptan-7-amine]	0.057 µM
COc1cc(C(=O)N2CC3CCC2[C@@H]3N)cc2nc(-c3cc4ccccc4n3CC3CC3)n(Cc3cn(C)nc3C)c12 (stereo partly drawn) [Example 492, (7R)-2-{2-[1-(cyclopropylmethyl)-1H-indol-2-yl]-1-[(1,3-dimethyl-1H-pyrazol-4-yl)methyl]-7-methoxy-1H-1,3-benzodiazole-5-carbonyl}-2-azabicyclo[2.2.1]heptan-7-amine]	0.078 µM
Cn1cc(Cn2c(-c3cc4cccnc4n3CC3CC3)nc3cc(C(=O)N4CC5CCC4[C@@H]5N)cc(Cl)c32)cn1 (stereo partly drawn) [Example 493, (7R)-2-{7-chloro-2-[1-(cyclopropylmethyl)-1H-pyrrolo[2,3-b]pyridin-2-yl]-1-[(1-methyl-1H-pyrazol-4-yl)methyl]-1H-1,3-benzodiazole-5-carbonyl}-2-azabicyclo[2.2.1]heptan-7-amine]	0.083 µM
COc1cc(C(=O)N2CC3CCC2[C@@H]3N)cc2nc(-c3cc4cccnc4n3CC3CC3)n(Cc3cc(C)nn3C)c12 (stereo partly drawn) [Example 494, (7R)-2-{2-[1-(cyclopropylmethyl)-1H-pyrrolo[2,3-b]pyridin-2-yl]-1-[(1,3-dimethyl-1H-pyrazol-5-yl)methyl]-7-methoxy-1H-1,3-benzodiazole-5-carbonyl}-2-azabicyclo[2.2.1]heptan-7-amine]	0.086 µM
COc1cc(C(=O)N2CC3CCC2[C@@H]3N)cc2nc(-c3cc4ccccc4n3CC(F)(F)F)n(Cc3cnn(C)c3)c12 (stereo partly drawn) [Example 495, (7R)-2-{7-methoxy-1-[(1-methyl-1H-pyrazol-4-yl)methyl]-2-[1-(2,2,2-trifluoroethyl)-1H-indol-2-yl]-1H-1,3-benzodiazole-5-carbonyl}-2-azabicyclo[2.2.1]heptan-7-amine]	0.088 µM
COc1cc(C(=O)N2CC3CCC2[C@@H]3N)cc2nc(-c3cc4cccnc4n3CC3CC3)n(Cc3ccnn3C)c12 (stereo partly drawn) [Example 496, (7R)-2-{2-[1-(cyclopropylmethyl)-1H-pyrrolo[2,3-b]pyridin-2-yl]-7-methoxy-1-[(1-methyl-1H-pyrazol-5-yl)methyl]-1H-1,3-benzodiazole-5-carbonyl}-2-azabicyclo[2.2.1]heptan-7-amine]	0.102 µM
COc1cc(C(=O)N2CC3CCC2[C@@H]3N)cc2nc(-c3cc4cccnc4n3CC3CC3)n(Cc3cn(C)nc3C)c12 (stereo partly drawn) [Example 497, (7R)-2-{2-[1-(cyclopropylmethyl)-1H-pyrrolo[2,3-b]pyridin-2-yl]-1-[(1,3-dimethyl-1H-pyrazol-4-yl)methyl]-7-methoxy-1H-1,3-benzodiazole-5-carbonyl}-2-azabicyclo[2.2.1]heptan-7-amine]	0.109 µM
COc1cc(C(=O)N2CC3CCC2[C@@H]3N)cc2nc(-c3cc4ccccc4n3CC3CC3)n(Cc3ccn(C)n3)c12 (stereo partly drawn) [Example 498, (7R)-2-{2-[1-(cyclopropylmethyl)-1H-indol-2-yl]-7-methoxy-1-[(1-methyl-1H-pyrazol-3-yl)methyl]-1H-1,3-benzodiazole-5-carbonyl}-2-azabicyclo[2.2.1]heptan-7-amine]	0.092 µM
COc1cc(C(=O)N2CC3CCC2[C@@H]3N)cc2nc(-c3cc4cccnc4n3CC3CC3)n(Cc3ccn(C)n3)c12 (stereo partly drawn) [Example 499, (7R)-2-{2-[1-(cyclopropylmethyl)-1H-pyrrolo[2,3-b]pyridin-2-yl]-7-methoxy-1-[(1-methyl-1H-pyrazol-3-yl)methyl]-1H-1,3-benzodiazole-5-carbonyl}-2-azabicyclo[2.2.1]heptan-7-amine]	0.125 µM
COc1cc(C(=O)N2C[C@H](N)C[C@@H](F)C2)cc2nc(-c3cc4cccnc4n3CC3CC3)n(Cc3cn[nH]c3)c12 [Example 500, (3R,5R)-1-{2-[1-(cyclopropylmethyl)-1H-pyrrolo[2,3-b]pyridin-2-yl]-7-methoxy-1-[(1H-pyrazol-4-yl)methyl]-1H-1,3-benzodiazole-5-carbonyl}-5-fluoropiperidin-3-amine]	0.127 µM
CCn1cc(Cn2c(-c3cc4cccnc4n3CC3CC3)nc3cc(C(=O)N4C[C@H](N)C[C@@H](F)C4)cc(OC)c32)cn1 [Example 501, (3R,5R)-1-{2-[1-(cyclopropylmethyl)-1H-pyrrolo[2,3-b]pyridin-2-yl]-1-[(1-ethyl-1H-pyrazol-4-yl)methyl]-7-methoxy-1H-1,3-benzodiazole-5-carbonyl}-5-fluoropiperidin-3-amine]	0.136 µM
COc1cc(C(=O)N2CC3CCC2[C@@H]3N)cc2nc(-c3cc4ccccc4n3CC(F)F)n(Cc3cnn(C)c3)c12 (stereo partly drawn) [Example 502, (7R)-2-{2-[1-(2,2-difluoroethyl)-1H-indol-2-yl]-7-methoxy-1-[(1-methyl-1H-pyrazol-4-yl)methyl]-1H-1,3-benzodiazole-5-carbonyl}-2-azabicyclo[2.2.1]heptan-7-amine]	0.146 µM
COc1cc(C(=O)N2CC3CCC2[C@@H]3N)cc2nc(-c3cc4ccccc4n3CC3CC3)n(Cc3cn(C)nn3)c12 (stereo partly drawn) [Example 503, (7R)-2-{2-[1-(cyclopropylmethyl)-1H-indol-2-yl]-7-methoxy-1-[(1-methyl-1H-1,2,3-triazol-4-yl)methyl]-1H-1,3-benzodiazole-5-carbonyl}-2-azabicyclo[2.2.1]heptan-7-amine]	0.149 µM
COc1cc(C(=O)N2C[C@H](N)C[C@@H](F)C2)cc2nc(-c3cc4cccnc4n3CC3CC3)n(Cc3cnn(C)c3C)c12 [Example 504, (3R,5R)-1-{2-[1-(cyclopropylmethyl)-1H-pyrrolo[2,3-b]pyridin-2-yl]-l-[(1,5-dimethyl-1H-pyrazol-4-yl)methyl]-7-methoxy-1H-1,3-benzodiazole-5-carbonyl}-5-fluoropiperidin-3-amine]	0.158 µM
COc1cc(C(=O)N2CC3CCC2[C@@H]3N)cc2nc(-c3cc4ccccc4n3CC3CC3)n(Cc3cnn(C)n3)c12 (stereo partly drawn) [Example 505, (7R)-2-{2-[1-(cyclopropylmethyl)-1H-indol-2-yl]-7-methoxy-1-[(2-methyl-2H-1,2,3-triazol-4-yl)methyl]-1H-1,3-benzodiazole-5-carbonyl}-2-azabicyclo[2.2.1]heptan-7-amine]	0.163 µM
COc1cc(C(=O)N2C[C@H](N)C[C@@H](F)C2)cc2nc(-c3cc4ccccc4n3CC3CC3)n(Cc3cnn(C)c3C)c12 [Example 506, (3R,5R)-1-{2-[1-(cyclopropylmethyl)-1H-indol-2-yl]-1-[(1,5-dimethyl-1H-pyrazol-4-yl)methyl]-7-methoxy-1H-1,3-benzodiazole-5-carbonyl}-5-fluoropiperidin-3-amine]	0.225 µM
COc1cc(C(=O)N2C[C@H](N)C[C@@H](F)C2)cc2nc(-c3cc4cccnc4n3CC3CC3)n(Cc3cn(C)nc3C)c12 [Example 507, (3R,5R)-1-{2-[1-(cyclopropylmethyl)-1H-pyrrolo[2,3-b]pyridin-2-yl]-1-[(1,3-dimethyl-1H-pyrazol-4-yl)methyl]-7-methoxy-1H-1,3-benzodiazole-5-carbonyl}-5-fluoropiperidin-3-amine]	0.256 µM
COc1cc(C(=O)N2CC3CCC2[C@@H]3N)cc2nc(-c3cc4ccccc4n3CC3CC3)n(CCc3cn[nH]c3)c12 (stereo partly drawn) [Example 508, (7R)-2-{2-[1-(cyclopropylmethyl)-1H-indol-2-yl]-7-methoxy-1-[2-(1H-pyrazol-4-yl)ethyl]-1H-1,3-benzodiazole-5-carbonyl}-2-azabicyclo[2.2.1]heptan-7-amine]	0.289 µM
COc1cc(C(=O)N2CC3CCC2[C@@H]3N)cc2nc(-c3cc4cccnc4n3CC3CC3)n(Cc3nc[nH]n3)c12 (stereo partly drawn) [Example 509, (7R)-2-{2-[1-(cyclopropylmethyl)-1H-pyrrolo[2,3-b]pyridin-2-yl]-7-methoxy-1-[(1H-l,2,4-triazol-3-yl)methyl]-1H-1,3-benzodiazole-5-carbonyl}-2-azabicyclo[2.2.1]heptan-7-amine]	0.3 µM
COc1cc(C(=O)N2CC3CCC2[C@@H]3N)cc2nc(-c3cc4ccccc4n3CC3CC3)n(Cc3nc[nH]n3)c12 (stereo partly drawn) [Example 510, (7R)-2-{2-[1-(cyclopropylmethyl)-1H-indol-2-yl]-7-methoxy-1-[(1H-1,2,4-triazol-3-yl)methyl]-1H-1,3-benzodiazole-5-carbonyl}-2-azabicyclo[2.2.1]heptan-7-amine]	0.326 µM
COc1cc(C(=O)N2CC3CCC2[C@@H]3N)cc2nc(-c3cc4ccccc4n3CC3CC3)n(CCc3cnn(C)c3)c12 (stereo partly drawn) [Example 511, (7R)-2-{2-[1-(cyclopropylmethyl)-1H-indol-2-yl]-7-methoxy-1-[2-(1-methyl-1H-pyrazol-4-yl)ethyl]-1H-l,3-benzodiazole-5-carbonyl}-2-azabicyclo[2.2.1]heptan-7-amine]	0.338 µM
COc1cc(C(=O)N2C[C@H](N)C[C@@H](F)C2)cc2nc(-c3cc4ccccc4n3CC3CC3)n(Cc3cn(C)nc3C)c12 [Example 512, (3R,5R)-1-{2-[1-(cyclopropylmethyl)-1H-indol-2-yl]-1-[(1,3-dimethyl-1H-pyrazol-4-yl)methyl]-7-methoxy-1H-1,3-benzodiazole-5-carbonyl}-5-fluoropiperidin-3-amine]	0.373 µM
COc1cc(C(=O)N2CC3CCC2[C@@H]3N)cc2nc(-c3cc4ccccc4n3C)n(Cc3cnn(C)c3)c12 (stereo partly drawn) [Example 513, (7R)-2-[7-methoxy-2-(1-methyl-1H-indol-2-yl)-1-[(1-methyl-1H-pyrazol-4-yl)methyl]-1H-1,3-benzodiazole-5-carbonyl]-2-azabicyclo[2.2.1]heptan-7-amine]	0.391 µM
COc1cc(C(=O)N2CC3CCC2[C@@H]3N)cc2nc(-c3cc4ccccc4n3CC3CC3)n(Cc3cnnn3C)c12 (stereo partly drawn) [Example 514, (7R)-2-{2-[1-(cyclopropylmethyl)-1H-indol-2-yl]-7-methoxy-1-[(1-methyl-1H-1,2,3-triazol-5-yl)methyl]-1H-1,3-benzodiazole-5-carbonyl}-2-azabicyclo[2.2.1]heptan-7-amine]	0.409 µM

Reference: patent US12692254B2, “Benzimidazole inhibitors of PAD enzymes” (BRISTOL-MYERS SQUIBB COMPANY, priority 2018, dated 2026)
